One assay concerns A549. The assay is described as follows: Antiproliferative activity against human A549 cells assessed as reduction in cell viability after 48 hrs by MTT assay. The class given is functional, cell-based. As to conditions: A549, 48 h.
The subject of another assay is L132. The assay is described as follows: Cytotoxicity against human L132 cells assessed as reduction in cell viability after 48 hrs by MTT assay. In kind it is cell-based. As to conditions: L132, 48 h. Background: Tetrazolium dyes change colour on reduction, which living cells bring about.
For a further assay, the system named is MDA-MB-231. The assay is described as follows: Antiproliferative activity against human MDA-MB-231 cells assessed as reduction in cell viability after 48 hrs by MTT assay. The class given is functional, cell-based. Particulars: MDA-MB-231, 48 h.
In another assay the test system is DU-145. Kind of assay: Antiproliferative activity against human DU-145 cells assessed as reduction in cell viability after 48 hrs by MTT assay. In kind it is functional, cell-based. As to conditions: DU-145, 48 h.
Assay [1] can be described thus: Inhibition of Saccharomyces cerevisiae alpha-glucosidase using p-nitophenyl alpha […]D-glucoside incubated for 45 mins.
Assay [2] in a line: Inhibition of LPS-induced TNF-alpha expression in human U-937 cells preincubated for 1 hr followed by LPS addition and measured after 24 hrs by ELISA. The class given is functional, cell-based. For orientation: An ELISA detects its analyte on a solid surface through an enzyme-linked reagent.
Assay [3] can be described thus: Inhibition of LPS-induced IL-1beta expression in human U-937 cells preincubated for 1 hr followed by LPS addition and measured after 24 hrs by ELISA. In kind it is functional, cell-based.
In a further assay the test system is SiHa. The assay is described as follows: Antiproliferative activity against human SiHa cells assessed as reduction in cell viability after 48 hrs by MTT assay. The class given is functional, cell-based.
A further assay relates to U-87 MG. The assay is described as follows: Antiproliferative activity against human U87 cells assessed as reduction in cell viability after 48 hrs by MTT assay. In kind it is functional, cell-based, U-87MG ATCC.

SMILES strings stand for the structures.

Turning to `C/C(=C\CC/C(C)=C/CC[C@@H]1[C@@]2(C)CCC(=O)C(C)(C)[C@H]2CC[C@@]1(C)O)CC/C=C(\C)C(=O)OCc1cn(-c2ccccc2F)nn1`, the IC50 with A549, in the assay on L132, in the assay with MDA-MB-231 and in the assay with DU-145 was > 150 µM in each case.

In the case of `COc1cccc(-n2cc(COC(=O)/C(C)=C/CC/C(C)=C/CC/C(C)=C/CC[C@@H]3[C@@]4(C)CCC(=O)C(C)(C)[C@H]4CC[C@@]3(C)O)nn2)c1`, the concentration for half-maximal inhibition (IC50) (usually the concentration at which inhibition is half-maximal) in the assay with A549 was > 150 µM; in the assay on DU-145, > 150 µM; in assay [1], 17.6 µM.

In assay [1], `C[C@H]1O[C@H](O[C@H]2[C@H](O)[C@@H](O)[C@@H](O[C@H]3[C@H](O)[C@@H](O)C(O)O[C@@H]3CO)O[C@@H]2CO)[C@H](O)[C@@H](O)[C@@H]1N[C@H]1C=C(CO)[C@@H](O)[C@H](O)[C@H]1O` (some centres undefined) [ACARBOSE] gave an IC50 of 2120 µM.

`C/C(=C\CC/C(C)=C/CC[C@@H]1[C@@]2(C)CCC(=O)C(C)(C)[C@H]2CC[C@@]1(C)O)CC/C=C(\C)C(=O)OCc1cn(C[C@@H]2O[C@H](n3ccc(=O)[nH]c3=O)[C@H]3OC(C)(C)O[C@H]32)nn1`: the concentration for half-maximal inhibition (IC50) in assay [2] is 8.1 µM; with A549 it was 15.3 µM; with L132, > 150 µM; in the assay with MDA-MB-231 it was > 150 µM; in [3], 14.1 µM; in the assay on DU-145, > 150 µM.

Turning to `C/C(=C\CC/C(C)=C/CC[C@@H]1[C@@]2(C)CCC(=O)C(C)(C)[C@H]2CC[C@@]1(C)O)CC/C=C(\C)C(=O)OCc1cn(-c2cccc(C(F)(F)F)c2)nn1`, the concentration for half-maximal inhibition (IC50) in the assay on A549 is > 150 µM; in the assay on MDA-MB-231 it was > 150 µM; in the assay on DU-145, > 150 µM; in assay [1], 13.4 µM.

On to `COc1ccccc1-n1cc(COC(=O)/C(C)=C/CC/C(C)=C/CC/C(C)=C/CC[C@@H]2[C@@]3(C)CCC(=O)C(C)(C)[C@H]3CC[C@@]2(C)O)nn1`, for which the IC50 in assay [2] was 11.7 µM; with A549, > 150 µM; in the assay on L132, > 150 µM; in the assay on MDA-MB-231, > 150 µM; in [3] it was 9.06 µM; in the assay on DU-145 it was > 150 µM.

Consider `C/C(=C\CC/C(C)=C/CC[C@@H]1[C@@]2(C)CCC(=O)C(C)(C)[C@H]2CC[C@@]1(C)O)CC/C=C(\C)C(=O)OCc1cn(-c2ccccc2Br)nn1`, for which the half-maximal inhibitory concentration (IC50) in the assay on A549, in the assay on L132, in the assay with MDA-MB-231 and with DU-145 was > 150 µM throughout.

Consider `C/C(=C\CC/C(C)=C/CC[C@@H]1[C@@]2(C)CCC(=O)C(C)(C)[C@H]2CC[C@@]1(C)O)CC/C=C(\C)C(=O)OCc1cn(-c2cccc(F)c2)nn1`, for which the IC50 in the assay with SiHa is > 150 µM; with U-87 MG it was > 150 µM; in the assay on A549, 124 µM; with MDA-MB-231, 144 µM; in the assay with DU-145 it was > 150 µM; in assay [1], 4.12 µM.

`COc1ccc(-n2cc(COC(=O)/C(C)=C/CC/C(C)=C/CC/C(C)=C/CC[C@@H]3[C@@]4(C)CCC(=O)C(C)(C)[C@H]4CC[C@@]3(C)O)nn2)cc1`: the 50% inhibitory concentration (IC50) is > 150 µM with A549, > 150 µM in the assay with L132, > 150 µM in the assay with MDA-MB-231 and 135 µM with DU-145.

Take `C/C(=C\CC/C(C)=C/CC[C@@H]1[C@@]2(C)CCC(=O)C(C)(C)[C@H]2CC[C@@]1(C)O)CC/C=C(\C)C(=O)OCc1cn(-c2ccc(Cl)cc2)nn1`: the half-maximal inhibitory concentration (IC50) in assay [2] is 9.12 µM; in the assay with A549, > 150 µM; with L132, > 150 µM; in [3] it was 66.6 µM; with DU-145 it was > 150 µM.

With `C/C(=C\CC/C(C)=C/CC[C@@H]1[C@@]2(C)CCC(=O)C(C)(C)[C@H]2CC[C@@]1(C)O)CC/C=C(\C)C(=O)OCc1cn(-c2cccc(Br)c2)nn1`, the half-maximal inhibitory concentration (IC50) with A549, with L132 and with DU-145 was > 150 µM each time.

Take `C/C(=C\CC/C(C)=C/CC[C@@H]1[C@@]2(C)CCC(=O)C(C)(C)[C@H]2CC[C@@]1(C)O)CC/C=C(\C)C(=O)OCc1cn(-c2ccc(C(F)(F)F)cc2)nn1`: the half-inhibitory concentration (IC50) with A549, in the assay with L132 and in the assay with MDA-MB-231 was > 150 µM throughout.

For the compound `C/C(=C\CC/C(C)=C/CC[C@@H]1[C@@]2(C)CCC(=O)C(C)(C)[C@H]2CC[C@@]1(C)O)CC/C=C(\C)C(=O)OCc1cn(-c2ccc(F)cc2)nn1`, the 50% inhibitory concentration (IC50) in the assay on U-87 MG, in the assay on A549, with L132 and with DU-145 was > 150 µM in each case.

Take `C/C(=C\CC/C(C)=C/CC[C@@H]1[C@@]2(C)CCC(=O)C(C)(C)[C@H]2CC[C@@]1(C)O)CC/C=C(\C)C(=O)OCc1cn(-c2ccccc2Cl)nn1`: the IC50 in assay [2] was 9.58 µM; in the assay on A549 it was > 150 µM; in the assay with L132, > 150 µM; with MDA-MB-231 it was > 150 µM; in [3], 8.95 µM; in the assay with DU-145 it was > 150 µM. In assay [1], the midpoint of inhibition, the IC50, lay at 106 µM.

`C[C@]12C=CC(=O)C=C1CC[C@@H]1[C@@H]2[C@@H](O)C[C@@]2(C)[C@H]1CC[C@]2(O)C(=O)CO` [PREDNISOLONE]: the IC50 was determined as 0.64 µM in assay [2] and 0.44 µM in assay [3].

As to `C/C(=C\CC/C(C)=C/CC[C@@H]1[C@@]2(C)CCC(=O)C(C)(C)[C@H]2CC[C@@]1(C)O)CC/C=C(\C)C(=O)OCc1cn(-c2ccc(C(C)(C)C)cc2)nn1`, the IC50 in the assay with U-87 MG was > 150 µM; in the assay on A549, > 150 µM; in the assay with L132, 65.8 µM; in the assay on DU-145 it was > 150 µM; in assay [1] it was 12.6 µM.

For the compound `C/C(=C\CC/C(C)=C/CC[C@@H]1[C@@]2(C)CCC(=O)C(C)(C)[C@H]2CC[C@@]1(C)O)CC/C=C(\C)C(=O)OCc1cn(-c2ccc(Br)cc2)nn1`, the IC50 with U-87 MG is > 150 µM; in the assay on A549, > 150 µM; in the assay on L132 it was > 150 µM; with DU-145, > 150 µM; in assay [1] it was 11.3 µM.

For the compound `C/C(=C\CC/C(C)=C/CC[C@@H]1[C@@]2(C)CCC(=O)C(C)(C)[C@H]2CC[C@@]1(C)O)CC/C=C(\C)C(=O)OCc1cn(-c2ccc(C)cc2)nn1`, the IC50 in the assay with A549, in the assay with L132 and in the assay with DU-145 was > 150 µM in each case.

As for `C/C(=C\CC/C(C)=C/CC[C@@H]1[C@@]2(C)CCC(=O)C(C)(C)[C@H]2CC[C@@]1(C)O)CC/C=C(\C)C(=O)OCc1cn(-c2cccc(C)c2)nn1`, the IC50 is > 150 µM in the assay on SiHa; > 150 µM with A549; > 150 µM with L132; 137 µM in the assay with DU-145; 13.4 µM in assay [1].

For the compound `C/C(=C\CC/C(C)=C/CC[C@@H]1[C@@]2(C)CCC(=O)C(C)(C)[C@H]2CC[C@@]1(C)O)CC/C=C(\C)C(=O)OCc1cn(-c2ccccc2C)nn1`, the IC50 in the assay with A549, in the assay on L132, in the assay with MDA-MB-231 and with DU-145 was > 150 µM each time.

For `C/C(=C\CC/C(C)=C/CC[C@@H]1[C@@]2(C)CCC(=O)C(C)(C)[C@H]2CC[C@@]1(C)O)CC/C=C(\C)C(=O)OCc1cn(-c2ccccc2C(F)(F)F)nn1`, the IC50 was > 150 µM in the assay on A549; > 150 µM in the assay on L132; > 150 µM with MDA-MB-231; > 150 µM in the assay on DU-145; 14.5 µM in [1].
